Data published in patent publication US20210220328A1, “PYRROLE DERIVATIVES AS ACC INHIBITORS” (Almirall, S.A., priority 2017, published 2021).

Test system: immortalized human sebocyte cell line, SZ95
Assay: In vitro assay of inhibition of lipid synthesis
Assay type: cell-based
Settings: 48 h, SZ95 sebocytes
Procedure: In Vitro Assay of Inhibition of Lipid Synthesis
To evaluate the inhibition of lipid synthesis, the immortalized human sebocyte cell line, SZ95 (stablished by Zouboulis, C. C. et al J Invest Dermatol 1999; 113:1011-20), was treated with arachidonic acid (AA) in presence or absence of compound. Lipids were detected by using a lipid sensing fluorophore.
Compounds were dissolved in dimethylsulfoxide (DMSO) 100%. Then the stocks were serial diluted 1/3 in DMSO 100%, and this battery of solutions were diluted 1/10 in culture medium, to minimize the percentage of the DMSO over cells.
10 k cells were plated in 384 well microtiter plates and incubated at 37° C. and 5% CO2 in DMEM/F12 supplemented with 10% FBS, 1.25 ng/ml of rhEGF and GA-1000 before of compound and stimulus addition. After 24 h, compounds dissolved in culture media were added over cells, diluting the solutions prepared 1/40 in the final volume of the assay. Then, cells and compounds were preincubated for 30 min at 37° C. and 5% CO2. After this prior incubation, the lipid synthesis was induced by 75 μM of AA final solution, preparing a solution 10× in culture media. Finally, SZ95 treated were incubated for 48 h at 37° C. and 5% CO2.
Neutral lipids were measured using AdipoRed™, purchased from LONZA. To do that, cells were washed with PBS and incubated with a solution of AdipoRed™ (final dilution 1/80 in PBS) for 30 min at room temperature. After the staining process, the fluorescence intensity (FI) was quantified using a fluorescence plate reader (excitation 485 nm; emission 535).
Activity of compounds were calculated as % of inhibition considering the maximal fluorescence for AA-stimulated cells and the minimum fluorescence for unstimulated cells as controls.

[1] = lipid synthesis induced by 75 μM arachidonic acid, AdipoRed fluorescence, Table 1
[2] = 75 μM arachidonic acid, AdipoRed, Table 2, finer classes for compounds with IC50 less than 250 nM

| Structure (SMILES) | IC50 [1] [nM] | IC50 [2] [nM] |
| --- | --- | --- |
| CCCCCCCCCCCCc1c[nH]c(C(=O)OCCCCCCCCCO)c1Cl [Example 59, 9-Hydroxynonyl 3-chloro-4-dodecyl-1H-pyrrole-2-carboxylate] | 250 to 1000 |  |
| CCCCCCCCCCCCc1c[nH]c(C(=O)OCCN2C(=O)CCC2=O)c1Cl [Example 60, 2-(2,5-dioxopyrrolidin-1-yl)ethyl 3-chloro-4-dodecyl-1H-pyrrole-2-carboxylate] | 1000 to 5000 |  |
| CCCCCCCCCCCCCc1c[nH]c(C(=O)O)c1Cl [Example 61, 3-Chloro-4-tridecyl-1H-pyrrole-2-carboxylic acid] | < 250 | 100 to 250 |
| CCCCCCCCCCCCCCCc1c[nH]c(C(=O)O)c1Cl [Example 62, 3-Chloro-4-pentadecyl-1H-pyrrole-2-carboxylic acid] | 250 to 1000 |  |
| CCCCCCCCCCCCCCCCc1c[nH]c(C(=O)O)c1Cl [Example 63, 3-Chloro-4-hexadecyl-1H-pyrrole-2-carboxylic acid] | 250 to 1000 |  |
| CCCCCCCCCCCc1cc(Cl)c(C(=O)O)[nH]1 [Example 64, 3-Chloro-5-undecyl-1H-pyrrole-2-carboxylic acid] | < 250 | 50 to 100 |
| CCCCCCCCCCCCc1cc(Cl)c(C(=O)O)[nH]1 [Example 65, 3-Chloro-5-dodecyl-1H-pyrrole-2-carboxylic acid] | < 250 | 50 to 100 |
| CCCCCCCCCCCCCc1cc(Cl)c(C(=O)O)[nH]1 [Example 66, 3-Chloro-5-tridecyl-1H-pyrrole-2-carboxylic acid] | < 250 | 100 to 250 |
| CCCCCCCCCCCCCCc1cc(Cl)c(C(=O)O)[nH]1 [Example 67, 3-Chloro-5-tetradecyl-1H-pyrrole-2-carboxylic acid] | 250 to 1000 |  |
| CCCCCCCCCCCCCc1c[nH]c(C(=O)O)c1Br [Example 68, 3-Bromo-4-tridecyl-1H-pyrrole-2-carboxylic acid] | 250 to 1000 |  |
| CCCCCCCCCCCCCc1cn(CCCC)c(C(=O)O)c1F [Example 69, 1-Butyl-3-fluoro-4-tridecyl-1H-pyrrole-2-carboxylic acid] | 1000 to 5000 |  |
| CCCCCCCCCCCCCc1cn(C(C)C)c(C(=O)O)c1F [Example 70, 3-Fluoro-1-isopropyl-4-tridecyl-1H-pyrrole-2-carboxylic acid] | 1000 to 5000 |  |
| CCCCCCCCCCOc1c[nH]c(C(=O)O)c1F [Example 71, 4-(Decyloxy)-3-fluoro-1H-pyrrole-2-carboxylic acid] | < 250 | < 50 |
| CCCCCCCCCCCOc1c[nH]c(C(=O)O)c1F [Example 72, 3-Fluoro-4-(undecyloxy)-1H-pyrrole-2-carboxylic acid] | < 250 | < 50 |
| CCCCCCCCCCCCOc1c[nH]c(C(=O)O)c1F [Example 73, 4-(Dodecyloxy)-3-fluoro-1H-pyrrole-2-carboxylic acid] | < 250 | < 50 |
| CCCCCCCCCCCCCOc1c[nH]c(C(=O)O)c1F [Example 74, 3-Fluoro-4-(tridecyloxy)-1H-pyrrole-2-carboxylic acid] | < 250 | < 50 |
| CCCCCCCCCCCCCCOc1c[nH]c(C(=O)O)c1F [Example 75, 3-Fluoro-4-(tetradecyloxy)-1H-pyrrole-2-carboxylic acid] | < 250 | < 50 |
| CCCCCCCCCCCCSc1c[nH]c(C(=O)O)c1F [Example 76, 4-(Dodecylthio)-3-fluoro-1H-pyrrole-2-carboxylic acid] | 1000 to 5000 |  |
| CCCCCCCCCOc1c[nH]c(C(=O)O)c1Cl [Example 77, 3-chloro-4-(nonyloxy)-1H-pyrrole-2-carboxylic acid] | < 250 | 50 to 100 |
| CCCCCCCCCCOc1c[nH]c(C(=O)O)c1Cl [Example 78, 3-Chloro-4-(decyloxy)-1H-pyrrole-2-carboxylic acid] | < 250 | < 50 |
| CCCCCCCCCCCOc1c[nH]c(C(=O)O)c1Cl [Example 79, 3-Chloro-4-(undecyloxy)-1H-pyrrole-2-carboxylic acid] | < 250 | < 50 |
| CCCCCCCCCCCCOc1c[nH]c(C(=O)O)c1Cl [Example 80, 3-Chloro-4-(dodecyloxy)-1H-pyrrole-2-carboxylic acid] | < 250 | < 50 |

| Structure (SMILES) | IC50 [1] [nM] | IC50 [2] [nM] |
| --- | --- | --- |
| CCCCCCCCCCCCOc1c[nH]c(C(=O)OCC(F)(F)F)c1Cl [Example 81, 2,2,2-Trifluoroethyl 3-chloro-4-(dodecyloxy)-1H-pyrrole-2-carboxylate] | < 250 | 100 to 250 |
| CCCCCCCCCCCCOc1c[nH]c(C(=O)OCCCCCCCCCO)c1Cl [Example 82, 9-Hydroxynonyl 3-chloro-4-(dodecyloxy)-1H-pyrrole-2-carboxylate] | < 250 | 100 to 250 |
| CCCCCCCCCCCCOc1c[nH]c(C(=O)OCCOCCOCC)c1Cl [Example 83, 2-(2-Ethoxyethoxy)ethyl 3-chloro-4-(dodecyloxy)-1H-pyrrole-2-carboxylate] | 250 to 1000 |  |
| CCCCCCCCCCCCOc1c[nH]c(C(=O)OCC(O)CO)c1Cl (stereo not drawn) [Example 84, 2,3-Dihydroxypropyl 3-chloro-4-(dodecyloxy)-1H-pyrrole-2-carboxylate] | < 250 | 100 to 250 |
| CCCCCCCCCCCCOc1c[nH]c(C(=O)OC(C)OC(=O)OC(C)C)c1Cl (stereo not drawn) [Example 85, 1-((Isopropoxycarbonyl)oxy)ethyl 3-chloro-4-(dodecyloxy)-1H-pyrrole-2-carboxylate] | < 250 | < 50 |
| CCCCCCCCCCCCOc1c[nH]c(C(=O)OC(C)OC(=O)OCCOCCOCC)c1Cl (stereo not drawn) [Example 86, 4-Oxo-3,5,8,11-tetraoxatridecan-2-yl 3-chloro-4-(dodecyloxy)-1H-pyrrole-2-carboxylate] | < 250 | < 50 |
| CCCCCCCCCCCCOc1c[nH]c(C(=O)OC(C)OC(=O)OCCCO)c1Cl (stereo not drawn) [Example 87, 1-(((3-Hydroxypropoxy)carbonyl)oxy)ethyl 3-chloro-4-(dodecyloxy)-1H-pyrrole-2-carboxylate] | < 250 | < 50 |
| CCCCCCCCCCCCOc1c[nH]c(C(=O)OCc2oc(=O)oc2C)c1Cl [Example 88, (5-Methyl-2-oxo-1,3-dioxol-4-yl)methyl 3-chloro-4-(dodecyloxy)-1H-pyrrole-2-carboxylate] | < 250 | < 50 |
| CCCCCCCCCCCCCOc1c[nH]c(C(=O)O)c1Cl [Example 89, 3-Chloro-4-(tridecyloxy)-1H-pyrrole-2-carboxylic acid] | < 250 | < 50 |
| CCCCCCCCCCCCCCOc1c[nH]c(C(=O)O)c1Cl [Example 90, 3-Chloro-4-(tetradecyloxy)-1H-pyrrole-2-carboxylic acid] | < 250 | 50 to 100 |
| CCCCCCCCCCCCCCC(=O)c1c[nH]c(C(=O)O)c1F [Example 91, 3-Fluoro-4-pentadecanoyl-1H-pyrrole-2-carboxylic acid] | 1000 to 5000 |  |
| CCOCCCCCCCCCCCCc1c[nH]c(C(=O)O)c1F [Example 92, 4-(12-Ethoxydodecyl)-3-fluoro-1H-pyrrole-2-carboxylic acid] | < 250 | < 50 |
| CCCCCCCCCCCC(F)Cc1c[nH]c(C(=O)O)c1F (stereo not drawn) [Example 93, 3-Fluoro-4-(2-fluorotridecyl)-1H-pyrrole-2-carboxylic acid] | < 250 | < 50 |
| CCCCCCCCCCCC(F)(F)Cc1c[nH]c(C(=O)O)c1F [Example 94, 4-(2,2-Difluorotridecyl)-3-fluoro-1H-pyrrole-2-carboxylic acid] | < 250 | 100 to 250 |
| CCCCCCCCCC(C)(C)CCc1c[nH]c(C(=O)O)c1F [Example 95, 4-(3,3-Dimethyldodecyl)-3-fluoro-1H-pyrrole-2-carboxylic acid] | < 250 | < 50 |
| CCCCCCCCCCCC(C)(C)COc1c[nH]c(C(=O)O)c1F [Example 96, 4-((2,2-Dimethyltridecyl)oxy)-3-fluoro-1H-pyrrole-2-carboxylic acid] | < 250 | 50 to 100 |
| CCCCCCCCCCCCC(F)(F)COc1c[nH]c(C(=O)O)c1F [Example 97, 4-((2,2-Difluorotetradecyl)oxy)-3-fluoro-1H-pyrrole-2-carboxylic acid] | < 250 | 100 to 250 |
| CCCCCCCCCC(F)(F)COc1c[nH]c(C(=O)O)c1F [Example 98, 4-((2,2-Difluoroundecyl)oxy)-3-fluoro-1H-pyrrole-2-carboxylic acid] | 250 to 1000 |  |
| CCCCCCCCCCCCC(F)COc1c[nH]c(C(=O)O)c1Cl (stereo not drawn) [Example 99, 3-Chloro-4-((2-fluorotetradecyl)oxy)-1H-pyrrole-2-carboxylic acid] | < 250 | 100 to 250 |
| CCOCCCCCCCCCOc1c[nH]c(C(=O)O)c1Cl [Example 100, 3-Chloro-4-((9-ethoxynonyl)oxy)-1H-pyrrole-2-carboxylic acid] | 250 to 1000 |  |
| CCCCCCCCCCCCCc1c[nH]c(C(=O)O)c1C [Example 101, 3-Methyl-4-tridecyl-1H-pyrrole-2-carboxylic acid] | 1000 to 5000 |  |
